According to patent EP0745595A1, “3-(3-Aryloxyphenyl)-1-(substituted methyl)-s-triazine-2,4,6-oxo or thiotrione herbicidal agents” (American Cyanamid Company, priority 1995, dated 1996):

Columns and labels:
Type in all cases: in vivo
[1] = tested on: CYPERUS SEROTINUS, ROTTB.; experiment: Preemergence weed control under flooded paddy conditions, CYPSE (Flatsedge); settings: preemergence, 3-4 weeks after treatment
Summary of the method: (§1)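 Visual 0-9 score (stand, vigor, malformation, size, chlorosis, appearance vs untreated control) taken 3-4 wk after treatment. Test compounds were added into flood water (1.5-3 cm over silt loam) as 50/50 v/v aqueous/acetone, equivalent to about 0.5-0.063 kg/ha a.i.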

[2] = tested on: ORYZA SATIVA, L. TEBONNET; experiment: Rice tolerance to post-transplant applications under flooded paddy conditions, ORYSAT (Rice, Tebonnet); settings: post-transplant rice, 3-4 weeks after treatment
Summary of the method: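 Visual 0-9 rating against untreated control (stand, vigor, malformation, size, chlorosis, overall appearance), taken 3-4 weeks after treatment. Flooded silt loam, water at 1.5-3 cm; two 10-day-old seedlings per pot; compound applied to flooded soil surface 3 days post-transplant at ~0.5-0.063 kg/ha.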

GALIUM APARINE = experiment: Preemergence herbicidal evaluation, GALAP (Galium); settings: Rate 0.500 kg/ha, rated four to five weeks after treatment
Text: (§2) Results of herbicide evaluation are expressed on a rating scale (0-9). The scale is based upon a visual observation of plant stand, vigor, malformation, size, chlorosis and overall plant appearance as compared with a control.
(§3) The preemergence herbicidal activity of the test compounds of the present invention is exemplified by the following tests in which the seeds of a variety of monocotyledonous and dicotyledonous plants are separately mixed with potting soil and planted on top of approximately one inch of soil in separate pint cups. […] The treated cups are then placed on greenhouse benches, watered and cared for in accordance with conventional greenhouse procedures. From four to five weeks after treatment, the tests are terminated and each cup is examined and rated according to the rating system provided in Example 40.
(§4) The compounds evaluated are reported by compound number given in Example 40.

CASSIA OBTUSIFOLIA, L. = experiment: Preemergence herbicidal evaluation, CASOB (Sicklepod); settings: Rate 0.500 kg/ha, rated four to five weeks after treatment
Text: as §2, §3, §4

SAGITTARIA PYGMAEA, L. = experiment: Preemergence weed control under flooded paddy conditions, SAGPY (Arrowhead (Pygmaea)); settings: preemergence, 3-4 weeks after treatment
Summary of the method: as §1

| Compound | Herbicidal effect rating, CYPSE ([1]; 0.063 kg/ha) | Herbicidal effect rating, CYPSE ([1]; 0.125 kg/ha) | Herbicidal effect rating, CYPSE ([1]; 0.250 kg/ha) | Herbicidal effect rating, CYPSE ([1]; 0.500 kg/ha) | Herbicidal effect rating, ORYSAT ([2]; 0.063 kg/ha) | Herbicidal effect rating, ORYSAT ([2]; 0.125 kg/ha) | Herbicidal effect rating, ORYSAT ([2]; 0.250 kg/ha) | Herbicidal effect rating, ORYSAT ([2]; 0.500 kg/ha) | GALAP herbicidal rating (GALIUM APARINE) | CASOB herbicidal rating (CASSIA OBTUSIFOLIA, L.) | Herbicidal effect rating, SAGPY (SAGITTARIA PYGMAEA, L.; 0.063 kg/ha) | Herbicidal effect rating, SAGPY (SAGITTARIA PYGMAEA, L.; 0.125 kg/ha) | Herbicidal effect rating, SAGPY (SAGITTARIA PYGMAEA, L.; 0.250 kg/ha) | Herbicidal effect rating, SAGPY (SAGITTARIA PYGMAEA, L.; 0.500 kg/ha) |
| --- | --- | --- | --- | --- | --- | --- | --- | --- | --- | --- | --- | --- | --- | --- |
| COC(=O)Cn1c(=O)n(C)c(=O)n(-c2cc(Oc3ccc(F)c(F)c3F)ccc2[N+](=O)[O-])c1=O [Compound 27, Methyl tetrahydro-3-methyl-5-[2-nitro-5-(2,3,4-trifluorophenoxy)phenyl]-2,4,6-trioxo-s-triazine-1(2H)-acetate] | 0.0 | 0.0 | 0.0 | 0.0 | 0.0 | 1.0 | 2.0 | 1.5 | 8.0 | 0.0 | 0.0 | 0.0 | 0.0 | 0.0 |
| COC(=O)Cn1c(=O)n(C)c(=O)n(-c2cc(Oc3cccc(Cl)c3Cl)ccc2[N+](=O)[O-])c1=O [Compound 22, Methyl 3-[5-(2,3-dichlorophenoxy)-2-nitrophenyl]tetrahydro-5-methyl-2,4,6-trioxo-s-triazine-1(2H)-acetate] | 0.0 | 0.0 | 0.0 | 0.0 | 0.0 | 0.0 | 0.0 | 2.0 | 0.0 | 3.0 | 0.0 | 0.0 | 0.0 | 0.0 |
